Columns and labels:
[1] = J Clin Invest., 1960 April, 39(4): p. 592-600; cited from earlier work
[2] = Temporal change in blood ICG concentration after tail vein injection into a nude mouse (FIG. 2); format: in vivo; conditions: ICG 20 nanomoles
Experimental: FIG. 2 is a diagram illustrating a temporal change in the concentration of the contrast agent 1012 in the blood when ICG (20 nanomoles) which is the contrast agent 1012 was injected into a tail vein of a nude mouse. The vertical axis of FIG. 2 represents the blood ICG concentration and the horizontal axis represents the time elapsed after the contrast agent 1012 was injected to the nude mouse.

time after injection within which the concentration of ICG present in the blood decreases to a half or smaller [2]: ≤ 10 min
Structure (SMILES): CC1(C)C(/C=C/C=C/C=C/C=C2\N(CCCCS(=O)(=O)O)c3ccc4ccccc4c3C2(C)C)=[N+](CCCCS(=O)(=O)[O-])c2ccc3ccccc3c21 [ICG, Indocyanine green]
half-life of ICG in the blood [1]: approximately 3 minutes

— US10271734B2, “Photoacoustic apparatus” (CANON KABUSHIKI KAISHA, priority 2015, dated 2019)
